Experiment [1] has as its target T1, Chymase (Homo sapiens, UniProt P23946).
T1 sequence (P23946 whole entry): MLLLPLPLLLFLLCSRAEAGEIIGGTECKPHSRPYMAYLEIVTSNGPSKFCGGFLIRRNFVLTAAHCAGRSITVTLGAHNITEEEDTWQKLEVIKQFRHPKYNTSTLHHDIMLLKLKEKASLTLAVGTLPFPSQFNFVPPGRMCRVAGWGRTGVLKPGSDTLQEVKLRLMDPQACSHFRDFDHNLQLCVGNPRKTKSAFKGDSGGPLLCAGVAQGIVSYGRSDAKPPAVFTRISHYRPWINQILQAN
Put plainly: Inhibition of recombinant human chymase expressed in Pichia pastoris X-33 cells using NleTDY-pNA as substrate assessed as cleavage of pNA at pH 7.2 and 298 K by spectrophotometry analysis.

The target in a further experiment is T2, Cathepsin G (Homo sapiens, UniProt P08311).
T2 sequence (P08311 whole entry): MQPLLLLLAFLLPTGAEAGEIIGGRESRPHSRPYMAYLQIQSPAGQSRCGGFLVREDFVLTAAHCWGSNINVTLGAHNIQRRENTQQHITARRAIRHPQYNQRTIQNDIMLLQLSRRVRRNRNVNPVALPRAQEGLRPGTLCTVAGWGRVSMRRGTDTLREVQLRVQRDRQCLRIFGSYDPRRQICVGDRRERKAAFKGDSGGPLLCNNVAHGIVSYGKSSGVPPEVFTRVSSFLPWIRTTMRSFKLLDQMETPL
The experiment is described as follows: Inhibition of human cathepsin G using Suc-AAPF-MCA as substrate at pH 7.2 and 298 K measured every 60 secs for 600 secs.

For a further experiment, the target named is Chymotrypsin (Homo sapiens, UniProt Q99895+P17538+P40313+Q6GPI1). Put plainly: Inhibition of human chymotrypsin using Suc-AAPF-MCA as substrate at pH 8 and 298 K measured every 60 secs for 600 secs. Format: protein assay.
Another experiment addresses Kallikrein-7 (Homo sapiens, UniProt P49862). The experiment is described as follows: Inhibition of recombinant human KLK7 expressed in Pichia pastoris X-33 using KHLY-pNA as substrate at pH 8 and 298 K measured every 60 secs for 600 secs.
In a further experiment the target is T3, Neutrophil elastase (Homo sapiens, UniProt P08246).
T3 sequence (P08246 whole entry): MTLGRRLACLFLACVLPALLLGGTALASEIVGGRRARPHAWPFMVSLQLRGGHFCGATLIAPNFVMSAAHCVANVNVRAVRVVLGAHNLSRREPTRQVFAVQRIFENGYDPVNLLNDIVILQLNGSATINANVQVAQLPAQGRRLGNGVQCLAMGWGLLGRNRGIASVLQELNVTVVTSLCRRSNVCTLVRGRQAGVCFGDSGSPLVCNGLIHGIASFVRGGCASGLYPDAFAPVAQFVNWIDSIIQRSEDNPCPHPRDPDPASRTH
The experiment is described as follows: Inhibition of human neutrophil elastase using MeOSuc-AAPV-MCA as substrate at pH 7.2 and 298 K measured every 60 secs for 600 secs.

The nature of experiment [2]: Inhibition of human cationic trypsin using Boc-VPR-MCA as substrate at pH 8 and 298 K measured every 60 secs for 600 secs.
Another experiment has as its target Prothrombin (Homo sapiens, UniProt P00734). The experiment is described as follows: Inhibition of human thrombin using Boc-VPR-MCA as substrate at pH 8 and 298 K measured every 60 secs for 600 secs.
A further experiment addresses T4, Coagulation factor XII (Homo sapiens, UniProt P00748).
T4 sequence (P00748 whole entry): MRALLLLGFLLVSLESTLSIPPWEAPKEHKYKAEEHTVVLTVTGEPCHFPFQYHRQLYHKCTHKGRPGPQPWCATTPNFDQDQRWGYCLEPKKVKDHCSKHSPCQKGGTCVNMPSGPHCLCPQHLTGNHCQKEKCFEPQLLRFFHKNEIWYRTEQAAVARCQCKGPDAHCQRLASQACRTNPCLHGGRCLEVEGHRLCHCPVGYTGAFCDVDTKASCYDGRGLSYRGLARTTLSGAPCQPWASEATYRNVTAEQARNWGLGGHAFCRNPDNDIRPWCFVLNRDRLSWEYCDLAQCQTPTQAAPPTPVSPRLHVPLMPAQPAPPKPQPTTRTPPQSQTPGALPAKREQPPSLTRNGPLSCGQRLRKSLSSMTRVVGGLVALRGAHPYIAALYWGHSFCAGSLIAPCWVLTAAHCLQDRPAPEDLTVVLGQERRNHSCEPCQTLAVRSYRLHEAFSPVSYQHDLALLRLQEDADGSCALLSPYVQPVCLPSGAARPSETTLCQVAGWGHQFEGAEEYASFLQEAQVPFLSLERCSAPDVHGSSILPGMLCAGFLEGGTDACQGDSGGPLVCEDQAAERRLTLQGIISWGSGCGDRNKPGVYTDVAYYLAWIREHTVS
The experiment is described as follows: Inhibition of human coagulation factor 12a using Ac-QRFR-pNA as substrate at pH 8 and 298 K measured every 60 secs for 600 secs.

The species named for experiment [3] is Homo sapiens. Put plainly: Selectivity index, ratio of Ki for human cathepsin G using Suc-AAPF-MCA as substrate to Ki for recombinant human chymase expressed in Pichia pastoris X-33 cells using NleTDY-pNA as substrate.
Experiment [4] addresses T1, Chymase. The experiment is described as follows: Inhibition of recombinant human chymase expressed in Pichia pastoris X-33 cells assessed as decrease in angiotensin 1 cleavage to angiotensin 2 incubated for 120 mins at 298 K by UPLC-MS analysis.
Experiment [5] is filed under the species Homo sapiens. Put plainly: Selectivity index, ratio of Ki for human chymotrypsin using Suc-AAPF-MCA as substrate to Ki for recombinant human chymase expressed in Pichia pastoris X-33 cells using NleTDY-pNA as substrate.

Each structure is given as a SMILES string. Bridge positions count the residues as written; N and C are the ends. Square brackets hold non-standard residues; d marks the D form. Peptide text beside a SMILES is read from it. Phe(4-Cl) = N[C@@H](Cc1ccc(Cl)cc1)C(=O)O; Phe(4-I) = N[C@@H](Cc1ccc(I)cc1)C(=O)O; Phe(4-Me) = Cc1ccc(C[C@H](N)C(=O)O)cc1 Bounds are passed on as bounds.

Sequence of Kallikrein-7 (P49862 whole entry): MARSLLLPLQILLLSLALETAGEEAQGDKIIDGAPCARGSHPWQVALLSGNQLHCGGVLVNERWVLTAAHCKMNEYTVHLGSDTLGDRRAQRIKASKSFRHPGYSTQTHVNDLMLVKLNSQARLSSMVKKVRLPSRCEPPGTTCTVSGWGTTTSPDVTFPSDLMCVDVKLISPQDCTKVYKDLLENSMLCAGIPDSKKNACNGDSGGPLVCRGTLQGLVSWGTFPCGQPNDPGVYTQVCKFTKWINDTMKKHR

As a reminder, the Ki is a dissociation constant, usually derived from enzyme kinetics or from competition with a known ligand. One may read the IC50 as the concentration that inhibits the measured activity by half. With `N=C(N)NCCC[C@@H]1NC(=O)CNC(=O)[C@H](CC(=O)O)NC(=O)[C@@H]2CCCN2C(=O)[C@H](Cc2ccccc2)NC(=O)[C@@H]2CSSC[C@H](NC1=O)C(=O)N[C@@H](CCC(N)=O)C(=O)N[C@@H](Cc1ccc(Cl)cc1)C(=O)N[C@@H](CO)C(=O)N[C@@H](CCC(=O)O)C(=O)N1CCC[C@H]1C(=O)N1CCC[C@H]1C(=O)N[C@@H](CCC(=O)O)C(=O)N2` (cyclo(CFPDGRCQ[Phe(4-Cl)]SEPPE); disulfide 1-7), the figures for the Ki at Chymase [1], at Cathepsin G and on Chymotrypsin were 1.8 nM, 150 nM and 330 nM, respectively. In addition, the IC50 at Kallikrein-7 is above 10000 nM; against Neutrophil elastase, above 10000 nM; in experiment [2], above 10000 nM; at Prothrombin, above 10000 nM; on Coagulation factor XII, above 10000 nM; on Chymase [4], 33 nM. For the same compound, the Ratio Ki in the experiment listed under Homo sapiens [3] was found to be 83.
For the compound `N=C(N)NCCC[C@@H]1NC(=O)CNC(=O)[C@H](CC(=O)O)NC(=O)[C@@H]2CCCN2C(=O)[C@H](Cc2ccccc2)NC(=O)[C@@H]2CSSC[C@H](NC1=O)C(=O)N[C@@H](CCC(N)=O)C(=O)N[C@@H](Cc1ccc(O)cc1)C(=O)N[C@@H](CO)C(=O)N[C@@H](CCC(=O)O)C(=O)N1CCC[C@H]1C(=O)N1CCC[C@H]1C(=O)N[C@@H](CCC(=O)O)C(=O)N2` (cyclo(CFPDGRCQYSEPPE); disulfide 1-7), the Ki is 6.6 nM at Chymase [1], 54 nM on Cathepsin G and 2900 nM on Chymotrypsin. The Ratio Ki in the experiment filed under Homo sapiens [3] turned out to be 8.2; in the experiment listed under Homo sapiens [5], 440.
Turning to `Cc1ccc(C[C@@H]2NC(=O)[C@H](CCC(N)=O)NC(=O)[C@@H]3CSSC[C@H](NC(=O)[C@H](CCC(=O)O)NC(=O)[C@@H]4CCCN4C(=O)[C@@H]4CCCN4C(=O)[C@H](CCC(=O)O)NC(=O)[C@H](CO)NC2=O)C(=O)N[C@@H](Cc2ccccc2)C(=O)N2CCC[C@H]2C(=O)N[C@@H](CC(=O)O)C(=O)NCC(=O)N[C@@H](CCCNC(=N)N)C(=O)N3)cc1` (cyclo(CFPDGRCQ[Phe(4-Me)]SEPPE); disulfide 1-7), the Ki on Chymase [1] was found to be 2.2 nM; at Cathepsin G, 160 nM; on Chymotrypsin, 1500 nM. In addition, the IC50 (at Kallikrein-7; against Neutrophil elastase; in experiment [2]; on Prothrombin; against Coagulation factor XII) was above 10000 nM throughout. The values for the Ratio Ki in the experiment filed under Homo sapiens [3] and in the experiment listed under Homo sapiens [5] were 72 to 80 and 180, respectively.
Turning to `N=C(N)NCCC[C@@H]1NC(=O)CNC(=O)[C@H](CC(=O)O)NC(=O)[C@@H]2CCCN2C(=O)[C@H](Cc2ccccc2)NC(=O)[C@@H]2CSSC[C@H](NC1=O)C(=O)N[C@@H](CCC(N)=O)C(=O)N[C@@H](Cc1ccc(I)cc1)C(=O)N[C@@H](CO)C(=O)N[C@@H](CCC(=O)O)C(=O)N1CCC[C@H]1C(=O)N1CCC[C@H]1C(=O)N[C@@H](CCC(=O)O)C(=O)N2` (cyclo(CFPDGRCQ[Phe(4-I)]SEPPE); disulfide 1-7), the results for the Ki at Chymase [1] and at Cathepsin G were 19 nM and 1200 nM, respectively. Besides, the IC50 (at Chymotrypsin; on Kallikrein-7; against Neutrophil elastase; in [2]; on Prothrombin; on Coagulation factor XII) was above 10000 nM each time. Further, the IC50 on Chymase [4] worked out at 290 nM.

Source of the values: ChEMBL document CHEMBL4376864, “Binding Loop Substitutions in the Cyclic Peptide SFTI-1 Generate Potent and Selective Chymase Inhibitors” (J Med Chem, 2020).
